Data reported in PubChem BioAssay (NCI).
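Cells were grown in 96-well plates and exposed to each compound for 48 hours at five concentrations; endpoints were interpolated linearly between bracketing concentrations, or set to the highest concentration if not reached. TGI: concentration producing complete growth inhibition.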

Assays:
Assay in all cases: NCI-60 cell line screen, 48 h
DLD-1 colon = tested on: DLD-1 colon
DMS 114 small cell lung = tested on: DMS 114 small cell lung
DMS 273 small cell lung = tested on: DMS 273 small cell lung
HOP-18 NSCLC = tested on: HOP-18 NSCLC
KM20L2 colon = tested on: KM20L2 colon
LXFL 529 NSCLC = tested on: LXFL 529 NSCLC
M19-MEL melanoma = tested on: M19-MEL melanoma
SF-268 CNS = tested on: SF-268 CNS
SNB-78 CNS = tested on: SNB-78 CNS
UACC-257 melanoma = tested on: UACC-257 melanoma
XF 498 CNS = tested on: XF 498 CNS
LOX IMVI melanoma = tested on: LOX IMVI melanoma

Row | SMILES | TGI (SF-268 CNS) [µM] | TGI (UACC-257 melanoma) [µM] | TGI (LOX IMVI melanoma) [µM] | other results
1 | CCn1c2ccccc2c2ccc3c(c21)C(=O)c1ccccc1C3=O | > 100 | > 100 | – | TGI (DLD-1 colon): > 100 µM; TGI (DMS 114 small cell lung): > 100 µM; TGI (DMS 273 small cell lung): > 100 µM; TGI (HOP-18 NSCLC): > 100 µM; TGI (KM20L2 colon): > 100 µM; TGI (LXFL 529 NSCLC): > 100 µM; TGI (M19-MEL melanoma): 60.6 µM; TGI (SNB-78 CNS): > 100 µM; TGI (XF 498 CNS): > 100 µM
2 | C=CCOC1=C(OCC=C)C(C2COC(C)(C)O2)OC1=O (stereo not given) | > 100 | > 100 | > 100 | –
3 | CCOC(=O)c1cc(C2CCN(CC(C)CC)C2=S)c(-c2cc(C)no2)[nH]1 (stereo not given) | > 100 | > 100 | > 100 | –
4 | O=C(N/N=C/c1ccc([N+](=O)[O-])cc1)c1cccc2nc3ccccc3nc12 | > 100 | > 100 | > 100 | –
5 | C=C1CCC2CC1[C@@H](C(=O)c1c[nH]c3ccccc13)NC2(C)C (stereo not given in full) | > 37.5 | > 37.5 | > 37.5 | –
6 | O=C1c2cc3c(cc2CC12Cc1cc4c(cc1C2=O)CCC4)CCC3 | > 100 | > 100 | > 100 | –
7 | COc1ccc(N=Nc2ccc3oc(=O)c(C(=O)Nc4ccccc4)cc3c2)cc1 | > 10 | > 10 | > 10 | –
8 | CCN1CN(c2ccccc2)C2(CCN(CCCSc3ccc(F)cc3)CC2)C1=O | 28.3 | 17.1 | 31.5 | –
9 | Cc1cc(NC(=O)NC(=O)c2ccccc2N)ccc1Oc1ncc(Br)cn1 | > 67.3 | 54.2 | > 67.1 | TGI (DLD-1 colon): > 47.9 µM; TGI (DMS 114 small cell lung): 0.0209 µM; TGI (HOP-18 NSCLC): > 78 µM; TGI (KM20L2 colon): 0.442 µM; TGI (LXFL 529 NSCLC): > 57.2 µM; TGI (M19-MEL melanoma): > 100 µM; TGI (SNB-78 CNS): > 100 µM; TGI (XF 498 CNS): 67.6 µM
10 | C=C(C(=O)O)C1CCC(CC/C=C(\C)CC/C=C(\C)CCC=C(C)C)CO1 (stereo not given) | > 100 | 52.9 | 24.6 | –
11 | Cc1nc(-n2[nH]c(C)c(CCO)c2=O)[nH]c(=O)c1CCO | > 100 | > 100 | > 100 | –
12 | COc1ccc(C2C3CCc4ccccc4C3=NN2S(=O)(=O)c2ccc(Cl)cc2)cc1 (stereo not given) | > 100 | > 100 | > 100 | –
13 | COc1ccc(Cc2c(N)[nH]c(=O)n(C)c2=O)cc1 | > 100 | > 100 | > 100 | –
14 | CCN(CC)CCC1CCCCN1CC(=O)N1c2ccccc2NC(=O)c2ccccc21 (stereo not given) | > 100 | > 100 | > 100 | –
15 | O=C(O)C12C3C4C1C1C2C3C1(Br)C41OCCO1 (stereo not given) | > 100 | > 100 | > 100 | TGI (DLD-1 colon): > 100 µM; TGI (DMS 114 small cell lung): > 100 µM; TGI (DMS 273 small cell lung): > 100 µM; TGI (HOP-18 NSCLC): > 100 µM; TGI (KM20L2 colon): > 100 µM; TGI (LXFL 529 NSCLC): > 100 µM; TGI (M19-MEL melanoma): > 100 µM; TGI (SNB-78 CNS): > 100 µM; TGI (XF 498 CNS): > 100 µM
16 | Cc1cnc(/N=c2\sc(C)cn2-c2ncc(C)s2)s1 | > 100 | > 100 | > 100 | –

Row | SMILES | TGI (SF-268 CNS) [µM] | TGI (UACC-257 melanoma) [µM] | TGI (LOX IMVI melanoma) [µM] | other results
17 | COc1ccc(C(=O)/C=C/c2ccc(OCCSCCCCCCCCCCSCCOc3ccc(/C=C/C(=O)c4ccc(OC)cc4)cc3)cc2)cc1 | > 100 | > 100 | – | –
18 | CC(C)(C)[Si](C)(C)OCC1OC(n2ccc(=O)[nH]c2=O)C(O[Si](C)(C)C(C)(C)C)[C@@]12O[C@H]2C(N)=O (stereo not given in full) | 28.2 | > 100 | 18.1 | –
19 | COP(=O)(OC)C(=NCc1ccccc1)NNc1ccc([N+](=O)[O-])cc1 | 84.9 | 51.1 | – | TGI (DLD-1 colon): > 100 µM; TGI (DMS 114 small cell lung): 76 µM; TGI (DMS 273 small cell lung): > 100 µM; TGI (KM20L2 colon): > 100 µM; TGI (LXFL 529 NSCLC): > 100 µM; TGI (M19-MEL melanoma): > 100 µM
20 | COc1cc(NCc2ccc3nc(-c4ccccc4)c(N)nc3c2)cc(OC)c1OC | 98.6 | 51.4 | > 100 | –
21 | CC(=O)OC1COC(n2nc(/C=C/c3ccc(Cl)cc3)c(=O)n(/N=C/c3ccccc3)c2=S)C(OC(C)=O)C1OC(C)=O (stereo not given) | > 100 | > 100 | > 100 | –
22 | CCOP(=O)(OCC)/C(C#N)=C/c1ccc(-c2ccc(F)cc2F)o1 | 44.3 | 26.8 | 32.9 | –
23 | N#Cc1c(-c2ccc(Cl)cc2)c(C#N)c(=O)n(NS(=O)(=O)c2ccccc2)c1S | – | > 100 | 50.6 | –
24 | O=c1[nH]/c(=C/c2ccc(OCc3ccccc3)cn2)c(=O)[nH]/c1=C/c1ccc(Cl)cc1 | > 52.4 | > 100 | > 100 | –
25 | O=C(c1ccco1)n1c2ccc(Br)cc2c2nc3ccccc3nc21 | > 100 | > 100 | > 100 | –
26 | c1ccc(-c2ccc(-c3cc4ccccc4[nH]3)cc2)cc1 | > 100 | > 100 | > 100 | –
27 | C=CC(C)(C)C(=C)C(=O)N(C)c1ccccc1I | > 100 | > 100 | > 100 | –
28 | C(=C\c1nccs1)/c1cccc(/C=C/c2nccs2)n1 | > 50 | > 50 | > 50 | –
29 | CCN(CC)c1ccc(C2SCC(=O)N2c2ccc(NC(=O)c3ccc(N4C(=O)CSC4c4ccc(N(CC)CC)cc4)cc3)cc2)cc1 (stereo not given) | > 100 | > 100 | > 100 | –
30 | COc1c(OC)c(N)c2cc(C)c(=O)c(C)cc2c1N | > 100 | > 100 | > 100 | TGI (DLD-1 colon): > 100 µM; TGI (DMS 114 small cell lung): > 100 µM; TGI (DMS 273 small cell lung): > 100 µM; TGI (HOP-18 NSCLC): > 100 µM; TGI (KM20L2 colon): > 100 µM; TGI (LXFL 529 NSCLC): > 100 µM; TGI (M19-MEL melanoma): > 100 µM; TGI (SNB-78 CNS): > 100 µM; TGI (XF 498 CNS): > 100 µM
31 | C#CCOCn1ccc(=O)[nH]c1=O | > 100 | > 100 | > 100 | –
